Assay results reported in PubChem BioAssay (NCI).
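A five-concentration, 48-hour dose response in 96-well plates underlies each endpoint, interpolated linearly between surrounding concentrations. Definition used: TGI = concentration required for complete inhibition of growth.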

Assays:
Assay in all cases: DTP human tumour cell line panel, 48 h
786-0 renal = system: 786-0 renal
A498 renal = system: A498 renal
A549 NSCLC = system: A549 NSCLC
ACHN renal = system: ACHN renal
BT-549 breast = system: BT-549 breast
CAKI-1 renal = system: CAKI-1 renal
CCRF-CEM leukemia = system: CCRF-CEM leukemia
COLO 205 colon = system: COLO 205 colon
DU-145 prostate = system: DU-145 prostate
EKVX NSCLC = system: EKVX NSCLC
HCC-2998 colon = system: HCC-2998 colon
HCT-116 colon = system: HCT-116 colon
HCT-15 colon = system: HCT-15 colon
HL-60(TB) leukemia = system: HL-60(TB) leukemia
HOP-62 NSCLC = system: HOP-62 NSCLC
HOP-92 NSCLC = system: HOP-92 NSCLC
HS 578T breast = system: HS 578T breast
HT29 colon = system: HT29 colon
IGROV1 ovarian = system: IGROV1 ovarian
KM12 colon = system: KM12 colon
LOX IMVI melanoma = system: LOX IMVI melanoma
M14 melanoma = system: M14 melanoma
MALME-3M melanoma = system: MALME-3M melanoma
MCF7 breast = system: MCF7 breast
MDA-MB-231 breast = system: MDA-MB-231 breast
MDA-MB-435 = system: MDA-MB-435
MDA-N = system: MDA-N
MOLT-4 leukemia = system: MOLT-4 leukemia
NCI-H226 lung = system: NCI-H226 lung
NCI-H23 lung = system: NCI-H23 lung
NCI-H460 lung = system: NCI-H460 lung
NCI-H522 lung = system: NCI-H522 lung
NCI/ADR-RES ovarian = system: NCI/ADR-RES ovarian
OVCAR-3 ovarian = system: OVCAR-3 ovarian
OVCAR-4 ovarian = system: OVCAR-4 ovarian
OVCAR-5 ovarian = system: OVCAR-5 ovarian
OVCAR-8 ovarian = system: OVCAR-8 ovarian
PC-3 prostate = system: PC-3 prostate
RXF 393 renal = system: RXF 393 renal
SF-268 CNS = system: SF-268 CNS
SF-295 CNS = system: SF-295 CNS
SF-539 CNS = system: SF-539 CNS
SK-MEL-2 melanoma = system: SK-MEL-2 melanoma
SK-MEL-28 melanoma = system: SK-MEL-28 melanoma
SK-MEL-5 melanoma = system: SK-MEL-5 melanoma
SK-OV-3 ovarian = system: SK-OV-3 ovarian
SN12C renal = system: SN12C renal
SNB-19 CNS = system: SNB-19 CNS
SNB-75 CNS = system: SNB-75 CNS
SR leukemia = system: SR leukemia
SW-620 colon = system: SW-620 colon
TK-10 renal = system: TK-10 renal
U251 CNS = system: U251 CNS
UACC-257 melanoma = system: UACC-257 melanoma
UACC-62 melanoma = system: UACC-62 melanoma
UO-31 renal = system: UO-31 renal
K-562 leukemia = system: K-562 leukemia
RPMI-8226 leukemia = system: RPMI-8226 leukemia

In the case of `Cc1cc(O)c(C=NC(=S)c2ccncc2)c(=O)o1`, the TGI (786-0 renal) is reported as over 100 µM, the TGI (A498 renal) is reported as over 100 µM and the TGI (A549 NSCLC) is reported as over 100 µM. It also gave a TGI (ACHN renal) of over 100 µM, a TGI (BT-549 breast) of over 100 µM and a TGI (CAKI-1 renal) of over 100 µM. For the same compound, the TGI (CCRF-CEM leukemia) was over 100 µM, the TGI (COLO 205 colon) was over 100 µM and the TGI (DU-145 prostate) was over 100 µM. For the same compound, the TGI (EKVX NSCLC) was over 100 µM, the TGI (HCC-2998 colon) was over 100 µM and the TGI (HCT-116 colon) was over 100 µM. For the same compound, the TGI (HCT-15 colon) was over 100 µM, the TGI (HL-60(TB) leukemia) was over 100 µM and the TGI (HOP-62 NSCLC) was over 100 µM. The TGI (HOP-92 NSCLC) was over 100 µM, the TGI (HS 578T breast) was over 100 µM and the TGI (HT29 colon) was over 100 µM. The TGI (IGROV1 ovarian) was over 100 µM, the TGI (KM12 colon) was over 100 µM and the TGI (LOX IMVI melanoma) was over 100 µM. The TGI (M14 melanoma) was over 100 µM, the TGI (MALME-3M melanoma) was over 100 µM and the TGI (MCF7 breast) was over 100 µM. The TGI (MDA-MB-231 breast) was over 100 µM, the TGI (MDA-MB-435) was over 100 µM and the TGI (MDA-N) was over 100 µM. The TGI (MOLT-4 leukemia) was over 100 µM, the TGI (NCI-H226 lung) was over 100 µM and the TGI (NCI-H23 lung) was over 100 µM. For the same compound, the TGI (NCI-H460 lung) was over 100 µM, the TGI (NCI-H522 lung) was over 100 µM and the TGI (NCI/ADR-RES ovarian) was over 100 µM. It also gave a TGI (OVCAR-3 ovarian) of over 100 µM, a TGI (OVCAR-4 ovarian) of over 100 µM and a TGI (OVCAR-5 ovarian) of over 100 µM. The TGI (OVCAR-8 ovarian) was over 100 µM, the TGI (PC-3 prostate) was over 100 µM and the TGI (RXF 393 renal) was over 100 µM. For the same compound, the TGI (SF-268 CNS) was over 100 µM, the TGI (SF-295 CNS) was over 100 µM and the TGI (SF-539 CNS) was over 100 µM. The TGI (SK-MEL-2 melanoma) was over 100 µM, the TGI (SK-MEL-28 melanoma) was over 100 µM and the TGI (SK-MEL-5 melanoma) was over 100 µM. The TGI (SK-OV-3 ovarian) was over 100 µM, the TGI (SN12C renal) was over 100 µM and the TGI (SNB-19 CNS) was over 100 µM. The TGI (SNB-75 CNS) was over 100 µM, the TGI (SR leukemia) was over 100 µM and the TGI (SW-620 colon) was over 100 µM. It also gave a TGI (TK-10 renal) of over 100 µM, a TGI (U251 CNS) of over 100 µM and a TGI (UACC-257 melanoma) of over 100 µM. The TGI (UACC-62 melanoma) was over 100 µM and the TGI (UO-31 renal) was over 100 µM.

With `O=C(Cc1cc(=O)oc2cc(O)ccc12)N/N=C/c1ccc(N(CCCl)CCCl)cc1` the TGI (786-0 renal) was 37.3 µM, the TGI (A498 renal) was 41.2 µM and the TGI (A549 NSCLC) was 32 µM. It also gave a TGI (ACHN renal) of 32.7 µM, a TGI (BT-549 breast) of 30.8 µM and a TGI (CAKI-1 renal) of 31.7 µM. The TGI (CCRF-CEM leukemia) was 74.7 µM, the TGI (COLO 205 colon) was 72 µM and the TGI (DU-145 prostate) was 41 µM. For the same compound, the TGI (EKVX NSCLC) was 44.1 µM, the TGI (HCC-2998 colon) was over 100 µM and the TGI (HCT-116 colon) was 30.2 µM. The TGI (HCT-15 colon) was over 100 µM, the TGI (HL-60(TB) leukemia) was 37.6 µM and the TGI (HOP-62 NSCLC) was 41.4 µM. It also gave a TGI (HOP-92 NSCLC) of 43.8 µM, a TGI (HS 578T breast) of 57.3 µM and a TGI (HT29 colon) of 45.1 µM. The TGI (IGROV1 ovarian) was 41.9 µM, the TGI (K-562 leukemia) was 82.1 µM and the TGI (KM12 colon) was over 100 µM. For the same compound, the TGI (LOX IMVI melanoma) was 36.4 µM, the TGI (M14 melanoma) was 37.8 µM and the TGI (MALME-3M melanoma) was 40.9 µM. It also gave a TGI (MCF7 breast) of 41.8 µM, a TGI (MDA-MB-231 breast) of 33.3 µM and a TGI (MDA-MB-435) of 47.7 µM. For the same compound, the TGI (MDA-N) was 63 µM, the TGI (MOLT-4 leukemia) was 94.6 µM and the TGI (NCI-H226 lung) was 35 µM. It also gave a TGI (NCI-H23 lung) of 69.4 µM, a TGI (NCI-H460 lung) of 29.4 µM and a TGI (NCI-H522 lung) of 45 µM. For the same compound, the TGI (NCI/ADR-RES ovarian) was over 100 µM, the TGI (OVCAR-3 ovarian) was 33.1 µM and the TGI (OVCAR-4 ovarian) was 87.3 µM. For the same compound, the TGI (OVCAR-5 ovarian) was 55 µM, the TGI (OVCAR-8 ovarian) was 29.4 µM and the TGI (PC-3 prostate) was 35.2 µM. The TGI (RPMI-8226 leukemia) was 43.6 µM, the TGI (RXF 393 renal) was 31 µM and the TGI (SF-268 CNS) was 30.4 µM. It also gave a TGI (SF-295 CNS) of 34.3 µM, a TGI (SF-539 CNS) of 35.6 µM and a TGI (SK-MEL-2 melanoma) of over 100 µM. It also gave a TGI (SK-MEL-28 melanoma) of 28.6 µM, a TGI (SK-MEL-5 melanoma) of 27.7 µM and a TGI (SN12C renal) of 41.3 µM. For the same compound, the TGI (SNB-19 CNS) was 42.4 µM, the TGI (SNB-75 CNS) was 38.5 µM and the TGI (SR leukemia) was 40.5 µM. For the same compound, the TGI (SW-620 colon) was over 100 µM, the TGI (U251 CNS) was 34.1 µM and the TGI (UACC-257 melanoma) was 63.1 µM. The TGI (UO-31 renal) was 46.2 µM.

`CNC(=O)c1ccc(C(=O)NCCCCCN(O)C(=O)CCC(=O)NCCCCCN(O)C(=O)CCC(=O)NCCCCCN(O)C(C)=O)c(O)c1O` gave a TGI (786-0 renal) of over 100 µM, a TGI (A498 renal) of over 100 µM and a TGI (A549 NSCLC) of over 100 µM. It also gave a TGI (ACHN renal) of over 100 µM, a TGI (BT-549 breast) of over 100 µM and a TGI (CAKI-1 renal) of over 100 µM. For the same compound, the TGI (CCRF-CEM leukemia) was 31 µM, the TGI (COLO 205 colon) was over 100 µM and the TGI (DU-145 prostate) was over 100 µM. It also gave a TGI (HCC-2998 colon) of over 100 µM, a TGI (HCT-116 colon) of over 100 µM and a TGI (HCT-15 colon) of over 100 µM. The TGI (HL-60(TB) leukemia) was over 100 µM, the TGI (HOP-62 NSCLC) was over 100 µM and the TGI (HOP-92 NSCLC) was over 100 µM. The TGI (HS 578T breast) was over 100 µM, the TGI (HT29 colon) was over 100 µM and the TGI (IGROV1 ovarian) was over 100 µM. For the same compound, the TGI (K-562 leukemia) was over 100 µM, the TGI (KM12 colon) was over 100 µM and the TGI (LOX IMVI melanoma) was over 100 µM. The TGI (M14 melanoma) was over 100 µM, the TGI (MALME-3M melanoma) was over 100 µM and the TGI (MCF7 breast) was over 100 µM. The TGI (MDA-MB-231 breast) was over 100 µM, the TGI (MDA-MB-435) was over 100 µM and the TGI (MDA-N) was over 100 µM. The TGI (NCI-H226 lung) was over 100 µM, the TGI (NCI-H23 lung) was over 100 µM and the TGI (NCI-H460 lung) was over 100 µM. The TGI (NCI-H522 lung) was over 100 µM, the TGI (NCI/ADR-RES ovarian) was over 100 µM and the TGI (OVCAR-3 ovarian) was over 100 µM. For the same compound, the TGI (OVCAR-4 ovarian) was over 100 µM, the TGI (OVCAR-5 ovarian) was over 100 µM and the TGI (OVCAR-8 ovarian) was over 100 µM. For the same compound, the TGI (PC-3 prostate) was over 100 µM, the TGI (RPMI-8226 leukemia) was over 100 µM and the TGI (RXF 393 renal) was over 100 µM. For the same compound, the TGI (SF-268 CNS) was over 100 µM, the TGI (SF-295 CNS) was over 100 µM and the TGI (SF-539 CNS) was over 100 µM. The TGI (SK-MEL-2 melanoma) was over 100 µM, the TGI (SK-MEL-28 melanoma) was over 100 µM and the TGI (SK-MEL-5 melanoma) was over 100 µM. For the same compound, the TGI (SK-OV-3 ovarian) was over 100 µM, the TGI (SN12C renal) was over 100 µM and the TGI (SNB-19 CNS) was over 100 µM. For the same compound, the TGI (SNB-75 CNS) was over 100 µM, the TGI (SW-620 colon) was over 100 µM and the TGI (TK-10 renal) was over 100 µM. It also gave a TGI (U251 CNS) of over 100 µM, a TGI (UACC-257 melanoma) of over 100 µM and a TGI (UACC-62 melanoma) of over 100 µM. The TGI (UO-31 renal) was over 100 µM.
